The values that follow come from patent publication US20120328717A1, “PHARMACEUTICAL KIT FOR TREATING NEURONAL DAMAGES” (priority 2011, published 2012).

For assay [1], the system named is middle cerebral artery occlusion (MCAO) animal models with ischemic strokes. Kind of assay: Evaluation of infarct volume by TTC staining after MCAO and reperfusion. The class given is in vivo, Sprague-Dawley rats. To be noted: Experiment 1; MCAO 90 min, reperfusion 72 hr; single dose: 45 mg/kg MgSO4 i.v. after MCAO or 6 mg/kg nimesulide i.p. before reperfusion.
Description: 150 Sprague-Dawley rats (SD rats) weighing 220-250 gm were purchased from the Laboratory Animal Center of National Chung Kung University. In the present experiments, middle cerebral artery occlusion (MCAO) known in the art was performed on SD rats to establish animal models with ischemic strokes by using occluding intra-luminal suture. The process for performing MCAO is briefly described as follows. A segment of 4-O nylon with blunted tip was inserted through the right internal carotid artery to occlude blood flow of middle cerebral artery (MCA). Laser Doppler flowmeter was used to monitor changes of cerebral blood flows in the MCA territory. […] Anesthetic time was limited to 20 minutes to minimize the influence of isoflurane on the outcome of MCAO. After recovery from anesthesia, rats without body asymmetry were regarded as failed MCAO models and excluded from further experiments. After MCAO was established for 90 min, intra-luminal occluder was removed to re-perfuse the brain. […] When SD rats in each group were treated with MCAO for 90 min and reperfusion for 72 hr, infarct volumes were evaluated by TTC staining.
Assay [2] has the same test system. Nature of the assay: Evaluation of brain edema (brain water content, wet-dry method) after MCAO. The class given is in vivo, Sprague-Dawley rats. To be noted: Experiment 1; 48 hr after MCAO and reperfusion; 45 mg/kg MgSO4 i.v., 6 mg/kg nimesulide i.p.
Description: In the present experiments, middle cerebral artery occlusion (MCAO) known in the art was performed on SD rats to establish animal models with ischemic strokes by using occluding intra-luminal suture. The process for performing MCAO is briefly described as follows. A segment of 4-O nylon with blunted tip was inserted through the right internal carotid artery to occlude blood flow of middle cerebral artery (MCA). Laser Doppler flowmeter was used to monitor changes of cerebral blood flows in the MCA territory. […] Anesthetic time was limited to 20 minutes to minimize the influence of isoflurane on the outcome of MCAO. After recovery from anesthesia, rats without body asymmetry were regarded as failed MCAO models and excluded from further experiments. After MCAO was established for 90 min, intra-luminal occluder was removed to re-perfuse the brain. […] Herein, cerebral edema was determined by measuring the brain water content with the wet-dry method after MCAO was established for 48 hr. […] The difference of water content in ipsilateral and contralateral hemisphere (Δ% of water content) 48 hr after ischemia-reperfusion injury was evaluated with the wet-dry method.

As to `O=S(=O)([O-])[O-].[Mg+2]` [MgSO4], the “infarct volume compared to SVe group” value in assay [1] is listed as “a decrease of infarct volume was not observed”. Further, the “post-ischemia brain edema (Δ% of water content, ipsilateral vs contralateral hemisphere) compared to SVe group” value in assay [2] is given as “cannot be Observed”.

Take `CS(=O)(=O)Nc1ccc([N+](=O)[O-])cc1Oc1ccccc1` [nimesulide, N-(4-Nitro-2-phenoxyphenyl)methane-sulfonamide]: the “infarct volume compared to SVe group” value in assay [1] is on record as “no neuro-protective effect”. Also, in assay [2], the “post-ischemia brain edema (Δ% of water content, ipsilateral vs contralateral hemisphere) compared to SVe group” value is listed as “cannot be Observed”.
